From publication PMC9570109, “Improved Trimethylangelicin Analogs for Cystic Fibrosis: Design, Synthesis and Preliminary Screening” (International Journal of Molecular Sciences, 2022)
Like-named read-outs stand apart in the source and are kept apart here. Blank lines part the entries; values can stand above or below the compound they belong to.

Tests used:
F508del CFTR [1] = target: T1, F508del CFTR (Homo sapiens, UniProt P13569, DEL508-508); test: F508del CFTR functional rescue (corrector) HS-YFP single-cell assay; type: cell-based; conditions: CFBE41o- YFP-F508del cells; for F508del CFTR rescue (corrector) activity: 48 h incubation, 200 nM
T1 construct: expressed in transfected cells; host or cells: CFBE41o- cells overexpressing F508del CFTR and HS-YFP (YFP-H148Q/I152L), a gift from N. Pedemonte, Gaslini Institute
T1 sequence (P13569 with tags, fused parts or gaps DEL508-508): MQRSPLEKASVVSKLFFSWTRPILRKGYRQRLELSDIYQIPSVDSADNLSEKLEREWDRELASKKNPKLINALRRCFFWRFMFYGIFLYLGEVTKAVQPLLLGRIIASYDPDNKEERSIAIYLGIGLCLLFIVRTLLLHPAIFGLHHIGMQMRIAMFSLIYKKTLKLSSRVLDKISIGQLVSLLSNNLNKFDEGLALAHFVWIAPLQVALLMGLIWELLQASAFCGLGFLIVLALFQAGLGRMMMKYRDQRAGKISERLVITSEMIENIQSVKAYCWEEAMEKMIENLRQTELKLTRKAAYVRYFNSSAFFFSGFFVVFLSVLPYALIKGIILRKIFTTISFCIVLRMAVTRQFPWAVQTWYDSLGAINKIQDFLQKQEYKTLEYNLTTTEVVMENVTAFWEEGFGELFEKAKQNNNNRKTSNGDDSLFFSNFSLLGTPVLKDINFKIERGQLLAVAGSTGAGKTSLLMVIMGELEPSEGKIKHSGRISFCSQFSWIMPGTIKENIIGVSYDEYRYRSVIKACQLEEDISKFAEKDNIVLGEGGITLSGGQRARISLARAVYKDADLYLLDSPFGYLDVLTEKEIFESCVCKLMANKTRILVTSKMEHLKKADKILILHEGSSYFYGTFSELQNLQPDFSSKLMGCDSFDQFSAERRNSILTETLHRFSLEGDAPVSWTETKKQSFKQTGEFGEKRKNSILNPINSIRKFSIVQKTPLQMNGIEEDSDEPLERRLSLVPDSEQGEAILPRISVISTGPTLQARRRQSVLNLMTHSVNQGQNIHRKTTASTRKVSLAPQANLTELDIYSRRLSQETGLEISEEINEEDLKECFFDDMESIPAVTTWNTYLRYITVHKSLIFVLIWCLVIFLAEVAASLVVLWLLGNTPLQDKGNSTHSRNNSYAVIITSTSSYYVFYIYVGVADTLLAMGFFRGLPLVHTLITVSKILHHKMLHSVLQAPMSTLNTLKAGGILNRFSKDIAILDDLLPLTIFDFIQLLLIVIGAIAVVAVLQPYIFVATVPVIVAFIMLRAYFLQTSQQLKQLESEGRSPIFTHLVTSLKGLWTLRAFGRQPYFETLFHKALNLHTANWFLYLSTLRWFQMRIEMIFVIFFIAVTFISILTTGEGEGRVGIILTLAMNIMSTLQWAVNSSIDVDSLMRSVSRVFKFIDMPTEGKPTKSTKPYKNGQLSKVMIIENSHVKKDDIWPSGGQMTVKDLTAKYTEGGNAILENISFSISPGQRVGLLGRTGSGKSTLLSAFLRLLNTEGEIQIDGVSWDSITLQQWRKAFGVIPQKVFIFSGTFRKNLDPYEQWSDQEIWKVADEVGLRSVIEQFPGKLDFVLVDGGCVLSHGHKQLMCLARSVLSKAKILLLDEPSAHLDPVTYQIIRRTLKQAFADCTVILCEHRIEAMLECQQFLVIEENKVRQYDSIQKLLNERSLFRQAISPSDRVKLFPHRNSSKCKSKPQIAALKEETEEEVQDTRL
Method: To verify the possibility that the title compounds may act as correctors in CFBE41o-, overexpressing F508del and the high sensitivity halide-sensing yellow fluorescent protein (HS-YFP) YFP-H148Q/I152L, we examined the effect of 48 h preincubation with vehicle or the TMA analogs or TMA or VX809 (Lumacaftor), as a positive control.
At the time of the assay, the correction of the F508del-CFTR function was evaluated in single-cell analysis by measuring the decrease in YFP fluorescence after the concomitant addition of extracellular iodide and the activating cocktail (20 μM forskolin and 5 μM VX770), in the presence or absence of the 10 μM CFTR inhibitor, CFTRinh-172. […] At least two derivatives show CFTR activity similar to that of the parent TMA.
The effect of TMA analogs on CFTR function was tested in CFBE41o- overexpressing F508del and the high sensitivity halide-sensing yellow fluorescent protein (HS-YFP) YFP-H148Q/I152L (a generous gift from N. Pedemonte, Gaslini Institute, Genova, Italy). YFP CF cells were seeded on round glass coverslips and preincubated for 48 h with vehicle or test compounds or VX809 or TMA. At the time of the assay, cells were washed in Dulbecco’s PBS (in mM: 137 NaCl, 2.7 KCl, 8.1 Na2HPO4, 1.5 KH2PO4, 1 CaCl2, and 0.5 MgCl2, pH 7.4) and subsequently incubated with a stimulation cocktail (20 μM forskolin and 5 μM VX770) in the presence and absence of 10 μM CFTR inhibitor, CFTRInh-172 (Sigma), for 30 min. The coverslips were then transferred on a Nikon TMD inverted microscope through a Nikon Fluor 40 objective. The signal was acquired with a Hamamatsu C2400–97 charge-coupled intensified video camera at a rate of 1 frame/3 s. The fluorescence coming from every single cell was analyzed by custom software (Spin, Vicenza, Italy). The results are presented as transformed data to obtain the percentage signal variation (Fx) relative to the time of addition of the stimulus, according to the equation: Fx = ([Ft − Fo]/Fo) × 100, where Ft and Fo are the fluorescence values at time t and at the time of stimulus addition, respectively. The assay of each sample consists of a continuous 99-s fluorescence reading with 30 s before and 69 s after injection of the iodide-rich Dulbecco’s PBS (in mM: 137 NaI, 2.7 KCl, 8.1 Na2HPO4, 1.5 KH2PO4, 1 CaCl2, and 0.5 MgCl2, pH 7.4) to reach a final iodide concentration of 50 mM [20]. The different sensitivity of HS-YFP toward iodide and chloride allows assays to be performed by measuring the transport of anions through the plasma membrane as changes in cell fluorescence. For this assay, cells expressing HS-YFP are equilibrated in a physiological chloride-rich saline solution (e.g., Dulbecco’s PBS). During fluorescence reading, cells are exposed to a high concentration of iodide. Iodide influx quenches the cell fluorescence with a rate that depends on the permeability of the cell membrane to halides, and therefore, on the activity of the anion channels or transporters.
Figure 4 Evaluation of different TMA analogs as F508del CFTR correctors in CFBE41o- YFP-F508del cells. Correction of F508del-CFTR function was assessed, in a single cell, by measuring the decrease in YFP fluorescence upon addition of extracellular iodide and with the activating cocktail, in the presence or absence of CFTR inhibitor, CFTRInh-172. Iodide influx was tested under control condition (vehicle) or after 48 h incubation with the correctors 200 nM or 1 μM VX809. The YFP fluorescence decay rate was calculated by fitting the fluorescence data with an exponential function of time courses. CFTR activity was obtained by the difference between the fluorescence decay rate of YFP in the presence and absence of CFTRInh-172. Fluorescence coming from every single cell of at least five cells per field was recorded. Each bar corresponds to the mean ± SEM of data points coming from at least three different experiments (5–10 different cells/each experiment). […]

F508del CFTR [2] = target: T1, F508del CFTR; parameters: method as in PMID 30022950; conditions: nanomolar concentrations; cited from earlier work
[3] = test system: CFTR in FRT-YFP-G551D cells; parameters: method as in PMID 30022950; conditions: cited from earlier work
[4] = parameters: method as in PMID 29627723; conditions: cited from earlier work
NF-kB/DNA interactions = test system: NF-kB/DNA interactions; parameters: method as in PMID 29627723; conditions: cited from earlier work
[5] = In vivo oral pharmacokinetics in mice; conditions: c57BL/6 male mice
Method: The main pharmacokinetic parameters of 4-PhDMA, pANDMA, and pANDMA mesylate were evaluated in c57BL/6 male mice, using water as dispersing vehicle.
All experimental procedures involving animals were conducted in accordance with the 3R principle to minimize their pain and discomfort. […] For the PK analysis, C57Bl6 male mice (n = 3 per time point) were gavaged with selected compounds (20 mg/kg), suspended in water, or dissolved in SEDDS formulations, after an overnight fast. […] 8.0 software (GraphPad Software Inc., San Diego, CA, USA), when appropriate. If not otherwise stated, the PK data are expressed as mean ± SD. p < 0.05 was considered statistically significant.
The TMA analogs were extracted and analyzed from mouse plasma as already reported. Briefly, 100 µL of plasma were treated with 300 µL of cold acetonitrile spiked with 80 nM of internal standard (IS, 6,4′-dimethylangelicin), and then the samples were centrifuged for 10 min at 12,000× g (Hettich Mikro 120 Benchtop Centrifuge) and 25 °C. Ten microliters of the supernatant were injected into the UHPLC system.
The analytical column was a Kinetex 2.6 μm C18 Polar, 100 A, 100 × 2.1 mm (Phenomenex, Bologna, Italy), thermostated at 30 °C. The mobile phase components A and B were water and methanol, respectively, both containing 10 mM ammonium formate. The eluent flow rate was 0.25 mL/min. […] MS data were analyzed using the Mass Hunter Qualitative Analysis software (Agilent Technologies, Palo Alto, CA, USA).
Chromatographic peaks of the TMA analog were identified and integrated by considering the Extracted Ion Chromatogram (EIC) of the [M+H]^+ species selected with a window of 5 ppm and normalized by the IS. Quantification of TMA analogs was carried out by external calibration of normalized signals using a seven-point calibration curve obtained by spiking blank plasma with each TMA analog in the range of 20–3000 nM.

salmon testes DNA = test: Photoadduct formation with DNA under UVA irradiation (TLC analysis); conditions: 15 J/cm2 UVA
Method: The total energy that struck the sample was monitored by means of a radiometer (Variocontrol, Waldmann, Villingen-Schwenningen, Germany), equipped with a Variocontrol UV Sensor (Waldmann). The radiant power emitted by the UVA lamp was about […]. The samples were maintained at room temperature during irradiation.
The test compounds were dissolved in ethanol (2 mg/mL) and salmon testes DNA (Sigma-Aldrich) was dissolved in 10 mM NaCl and 1 mM EDTA solution (1.5 × 10^−3 M). Each test solution (250 μL) was added dropwise to the DNA solution (5 mL). The mixture was irradiated with 15 J/cm2 UVA light in a glass dish for 1 h. After irradiation, the DNA was precipitated with 1 M NaCl and two volumes of cold ethanol; the precipitated DNA was collected, washed with 80% ethanol, dried, and then dissolved in water. To obtain hydrolysis, the final solution was acidified with 1 M HCl, heated at 100 °C for 1 h, neutralized with NaOH and extracted three times with chloroform. Then, all of the organic layers were collected, dried under a high vacuum, and dissolved in ethanol. The hydrolyzed mixtures were separated by thin layer chromatography (TLC; F254 plates, 0.25 mm, Merck, Darmstadt, Germany) eluting with EtOAc/EtOH (9:1). The plates were analyzed with a Mineral Light Lamp VL-4LC VILBERT-LOURMAT (Vilber, Marne-la-Vallée, France).

HepG2 cells = test: Cytotoxicity MTT assay on HepG2 cells; conditions: HepG2, 24 h, highest concentration tested (50 μM)
Method: The potential toxicity of TMA analogs on hepatic tissue was assessed by evaluating the viability of HepG2 cells (ATCC, HB-8065) using the MTT assay, as previously reported [22]. Cells were maintained in DMEM complete medium (10% FBS, 1% l-glutamine and 1% PEN-STREP) and seeded in a 96-well plate (5 × 10^4 cells/mL). They were treated for 24 h with TMA analogs (concentration range from 3.125 μM to 50 μM). At the end of the treatment, cells were washed and an MTT solution (0.5 mg/mL in complete medium) was added to each well and incubated for 4 h at 37 °C. The solution was discarded, and the produced blue formazan crystals were dissolved with acidified isopropanol (2% HCl). Absorbance was measured at 570 nm using a multiplate reader (Victor Nivo, Perkin Elmer). The percentage of viable cells was calculated considering untreated cells as control.
The data shown in this figure are the results of three independent experiments, each
performed in quadruplicate.

[6] = mouse, plasma, po, 20 mg/kg gavage, in water

SMILES: CCc1cc2c(-c3ccccc3)cc(=O)oc2c2c(C)coc12 [4-PhEMA]
- F508del CFTR rescue (corrector) activity (F508del CFTR [1]): inactive

SMILES: Cc1coc2c(-c3ccccc3)cc3c(C4CC4)cc(=O)oc3c12 [CPPhMA]
- F508del CFTR rescue (corrector) activity (F508del CFTR [1]): inactive

SMILES: CCc1cc2c(C(C)C)cc(=O)oc2c2c(C)coc12 [IPEMA, 4-isopropyl-6-ethyl-4′-methylangelicin]
- rescue of F508del CFTR-dependent chloride efflux (F508del CFTR [2]): significantly rescued
- potentiation activity of CFTR [3]: maintained the potentiation activity
- mutagenicity and DNA damaging properties [4]: lacking mutagenicity and DNA damaging properties
- inhibitory activity on NF-kB/DNA interactions (NF-kB/DNA interactions): TMA-like inhibitory activity
- CL/F ([5]; 20 mg/kg gavage, in water): 0.0633 ± 0.005 mL/h/g
- oral bioavailability ([5]; water as vehicle): very low
- Cmax [5, 6]: 120 ± 55.3 nM
- half-life [5, 6]: 9.01 ± 1.34 h
- AUC 0-inf ([5]; mouse, plasma, po, 20 mg/kg gavage, in water, read-out: AUC 0-inf): 0.395 ± 0.0987 µM·h
- Tmax ([5]; mouse, plasma, po, 20 mg/kg gavage, in water, read-out: Tmax): 1 h

SMILES: Cc1coc2c(-c3ccccc3)cc3c(C(C)C)cc(=O)oc3c12 [IPPhMA]
- F508del CFTR rescue (corrector) activity (F508del CFTR [1]): inactive

SMILES: CS(=O)(=O)O.Cc1cc(=O)oc2c1cc(-c1ccc(N)cc1)c1occ(C)c12 [pANDMA mesylate]
- reduction in YFP fluorescence induced by iodide influx compared to vehicle (F508del CFTR [1]; 48 h treatment, representative time courses): greater reduction in YFP fluorescence
- AUC 0-inf ([5]; 20 mg/kg gavage, in water): 9.4026 ± 0.7422 µM·h
- CL/F ([5]; 20 mg/kg gavage, in water): 0.0091 ± 0.0002 mL/h/g
- Cmax ([5]; 20 mg/kg gavage, in water): 3870 ± 1070 nM
- Tmax ([5]; 20 mg/kg gavage, in water): 0.375 ± 0.177 h
- t1/2 ([5]; 20 mg/kg gavage, in water): 1.87 ± 0.43 h
- bioavailability relative to pANDMA ([5]; water as vehicle): nearly four-times more bioavailable
- cell viability (HepG2 cells): greater than 75%

More lines, now with the values ahead:

- F508del CFTR rescue (corrector) activity (F508del CFTR [1]): inactive
SMILES: Cc1cc(=O)oc2c1cc(-c1ccncc1)c1occ(C)c12 [PyDMA]

- photoadduct formation with DNA upon UVA irradiation (salmon testes DNA): showed photoadducts
SMILES: Cc1cc(=O)oc2c1cc(C)c1occ(C)c12 [TMA, 4,6,4′-trimethylangelicin, reference compound]

- F508del CFTR rescue (corrector) activity (F508del CFTR [1]): inactive
SMILES: Cc1cc(=O)oc2c1cc(-c1cccs1)c1occ(C)c12 [ThiDMA]

- F508del CFTR rescue (corrector) activity (F508del CFTR [1]): inactive
SMILES: Cc1cc(=O)oc2c1cc(-c1cccc(N)c1)c1occ(C)c12 [mANDMA]
